Reference: US9145375B2, “Quinazolinone compounds” (PRANA BIOTECHNOLOGY LIMITED, priority 2008, dated 2015)
“And” between values parts separate entries of the source, which are not always exact repeats. Equal entries are not always repeated.

Columns and labels:
[1] = Plasma Protein Binding, mouse; type: in vitro ADME
[2] = Plasma Protein Binding, rat; type: in vitro ADME
[3] = system: generation of hydrogen peroxide (H2O2) by iron; test: H2O2 Inhibition Assay; type: biochemical
Protocol: Assay 1. H2O2 Inhibition Assay.
(§1) This fluoresence assay evaluates the ability of a test compound to inhibit the generation of hydrogen peroxide (H2O2) by iron in the presence of a reducing substrate such as ascorbic acid. In the assay, iron in the form of FeCl3 or copper is allowed to react with ascorbic acid by incubating for 1 hr at 37° C. in the presence of the fluorescing compound DCF and horseradish peroxidase. H2O2 generated by the system is assessed by measuring the specific fluorescence profile at the excitation and emission wavelengths of 485 and 530 nm respectively, in the presence of increasing concentrations of test compound. Test compounds are ranked according to their capacity to inhibit H2O2 generated by the system where lower values reflect greater ability to inhibit H2O2 production.

[4] = system: Fe-DA; test: H2O2 assay, Fe-DA (% cf. Fe 0.4 μM/DA 50 μM); type: biochemical; settings: Fe 0.4 μM/DA 50 μM
Protocol: as §1

[5] = system: Neuronal cortical cells; test: Cytotox (% viable); Primary Neuronal Cells Neurotoxicity Assay; type: cell-based, mouse; settings: cell type not given, repeat values given
Protocol: Assay 2 (a). Primary Neuronal Cells Neurotoxicity Assays
Cortical cultures were prepared as previously described (White et al., 1998). Embryonic day 14 BL6Jx129sv mouse cortices were removed, dissected free of meninges and dissociated in 0.025% (wt/vol) trypsin. Dissociated cells were plated in 48 well culture plates at a density of 2×10^6 cells/mL in MEM with 25% (vol/vol) FCS and 5% (vol/vol) HS and incubated at 37° C., 2 hrs. Media was then replaced with Neurobasal media (Invitrogen Life Technologies) and B27 supplements (Invitrogen Life Technologies). Cultures were maintained at 37° C. in 5% CO2. Prior to experimentation, the culture medium was replaced with Neurobasal media and B27 minus antioxidants (Invitrogen Life Technologies).
Neuronal cortical cells were cultured for five days as per Assay 2 in NB media and B27 supplement.
On day six the test compounds were added to the neuronal cell cultures in NB media and B27 supplement minus antioxidants.
Test compounds were dissolved in 100% DMSO to a concentration of 2.5 mM (10 mM if excess compound was weighed out per vial—then diluted to 2.5 mM). 2.5 mM stock solution was serially diluted 1 in 10 to give working solutions of 250 uM, 25 uM, 2.5 uM. Test compounds were not added directly to cells, instead they were added to a 48 well ‘Drug Plate’ as comprised below: • Preparation of “Drug Plate”:
Well 1: 576 ul NB+B27 (no antioxidant)*+24 ul 2.5 uM test compound
Well 2: 576 ul NB+B27 (no antioxidant)+24 μl 25 uM test compound
Well 3: 576 ul NB+B27 (no antioxidant)+24 ul 250 uM test compound
Well 4: 576 ul NB+B27 (no antioxidant)+24 ul 2.5 uM test compound
Well 5: 576 ul NB+B27 (no antioxidant)+24 ul 25 uM test compound
Well 6: 576 ul NB+B27 (no antioxidant)+24 ul 250 uM test compound
Well 7: 576 ul NB+B27 (no antioxidant)+24 ul test compound diluent**
Well 8: 600 ul NB+B27 (no antioxidant)
The Drug Plate was incubated at 37° C. for 15 mins. 200 ul of each well was added in triplicate to the corresponding cell plate. The cell plate was incubated at 37° C., for 4 days, (2 compounds are tested on each plate of cells).
*NB media and B27 (no antioxidants),
**PBT diluent 10% DMSO in NB+1327 (no antioxidants)
On completion of the assay, 1/10 volume MTS was added per well of plate (ie 25 ul/250 ul). The plates were incubated at 37° C. for 2 hrs, and then absorbance was read at 560 nm.

[6] = system: M17 human neuroblastoma cells; test: Metal Uptake Assay (metal transport); type: cell-based; settings: 10 μM Cu + 10 μM compound, 5 hours
Protocol: Assay 3. Metal Uptake Assay
M17 human neuroblastoma cells are plated out on 6 well plates and left overnight. Enough cells are added to give approximately 70% confluent the following day of the experiment. Test compounds are added to media and mixed with equi-molar amounts of CuCl2 solution. A=10 μM Cu+10 μM MPAC; B=10 μM Cu+10 μM MPAC.
Cells are incubated in 1 ml of media/MPAC/Cu mix for 5 hours at 37° C. At the end of the incubation the media is removed with a vacuum aspirator and 1 ml of PBS added to dislodge the cells. Cells are then put into Eppendorf tubes and pelleted. The PBS is removed and the remaining cell pellets are frozen at −20 C.
The cell pellets are prepared as follows:
Received cell pellets of similar levels in 1.5 ml microfuge tubes. Added 50 μl of concentrated Nitric Acid (Aristar, BDH) to each cell pellet and allowed them to digest over night. Heated the samples for 20 min at 90° C. to complete the digestion. The volume of each sample was reduced to ˜45 ul after digestion. Added 1 ml of the 1% Nitric Acid diluent to each sample. (referred to as the “preparation solution” samples).
Measurements were made using a Varian UltraMass ICPMS instrument under operating conditions suitable for routine multi-element analysis.
The instrument was calibrated using Blank, 10, 50 and 100 ppb of a certified multi-element ICPMS standard solution (ICP-MS—CAI2-1, Accustandard) for Fe, Cu and Zn in 1% nitric acid. Used an certified internal standard solution containing 100 ppb Yttrium (Y 89) as an internal control (ICP-MS—IS-MIX1-1, Accustandard).

[7] = target: T1, CYP2C9 (Homo sapiens, UniProt P11712); test: CYP450 isoform inhibition, recombinant enzymes, analysis by LCMS: CYP2C9; type: in vitro ADME
T1 construct: using a specific substrate approach in human liver microsomes; from tissue; host or cells: human liver microsomes
Protocol: (§2) CYP450 Isoform Inhibition
(§3) Microsomes containing individual recombinant human CYP450 enzymes (Supersomes™) were incubated in the presence of a fixed concentration of a probe substrate that forms a fluorescent metabolite upon CYP450-mediated metabolism.
(§4) A known inhibitor of each CYP450 isoform was included in each assay as a positive control and its IC50 was compared to literature values for acceptance of the assay.
(§5) The inherent fluorescence of the test compound was examined under the specific assay conditions for each isoform before and after the fluorometric assay to identify any compound-specific interference due to the parent compound or metabolic products. If the background fluorescence in these samples increased due to compound-specific interference, then the CYP450 inhibition samples were quantified using LC/MS assay.

[8] = target: T2, CYP2C19 (Homo sapiens, UniProt P33261); test: CYP450 isoform inhibition, recombinant enzymes, analysis by LCMS: CYP2C19; type: in vitro ADME
T2 construct: using a specific substrate approach in human liver microsomes; from tissue; host or cells: human liver microsomes
Protocol: as §2, §3, §4, §5

[9] = system: M17; test: Cytotox (% viable), cells marked M17; type: cell-based, human; settings: repeat values given

T2 sequence (P33261 whole entry, canonical isoform): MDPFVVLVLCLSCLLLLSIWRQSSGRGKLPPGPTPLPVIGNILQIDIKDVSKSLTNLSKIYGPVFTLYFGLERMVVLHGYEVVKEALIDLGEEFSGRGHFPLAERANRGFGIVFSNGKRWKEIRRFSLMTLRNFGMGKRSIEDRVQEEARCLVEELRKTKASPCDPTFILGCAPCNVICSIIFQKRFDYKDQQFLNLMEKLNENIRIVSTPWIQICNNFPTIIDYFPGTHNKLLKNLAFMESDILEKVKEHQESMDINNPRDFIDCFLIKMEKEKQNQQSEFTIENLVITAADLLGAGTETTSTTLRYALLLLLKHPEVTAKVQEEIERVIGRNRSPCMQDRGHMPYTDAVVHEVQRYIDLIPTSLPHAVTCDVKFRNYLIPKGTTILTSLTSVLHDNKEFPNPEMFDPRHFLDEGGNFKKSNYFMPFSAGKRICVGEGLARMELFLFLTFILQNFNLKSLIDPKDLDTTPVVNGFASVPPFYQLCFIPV
T1 sequence (P11712 whole entry, canonical isoform): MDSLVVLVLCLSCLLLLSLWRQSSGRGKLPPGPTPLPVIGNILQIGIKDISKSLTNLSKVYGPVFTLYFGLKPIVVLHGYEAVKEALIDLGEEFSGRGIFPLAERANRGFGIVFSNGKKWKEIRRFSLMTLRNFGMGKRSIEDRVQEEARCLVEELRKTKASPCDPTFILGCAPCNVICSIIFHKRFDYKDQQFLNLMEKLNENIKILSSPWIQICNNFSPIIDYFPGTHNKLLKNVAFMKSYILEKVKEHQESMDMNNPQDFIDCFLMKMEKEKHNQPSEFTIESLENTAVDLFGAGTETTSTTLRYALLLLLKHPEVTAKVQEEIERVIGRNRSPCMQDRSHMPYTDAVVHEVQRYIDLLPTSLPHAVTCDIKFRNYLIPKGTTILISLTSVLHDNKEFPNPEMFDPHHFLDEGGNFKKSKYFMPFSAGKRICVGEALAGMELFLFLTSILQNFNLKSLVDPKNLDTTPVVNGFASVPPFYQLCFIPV

Row | Compound | IC50 [3] [nM] | Fe-DA % cf. Fe 0.4 μM/DA 50 μM [4] [%] | Cytotox (% viable at 1 uM) [5] | Cytotox (% viable at 10 uM) [5] | Metal transport [6] | also measured
1 | CCn1c(CN(C)C)nc2c(O)c(Cl)cc(Cl)c2c1=O.Cl [Compound F4268] | – | – | – | – | – | fraction unbound [1]: 0.178 to 0.203; fraction unbound [2]: 0.052 to 0.055
2 | CNCc1nc2c(O)c(Cl)cc(Cl)c2c(=O)n1C [Compound F4161] | – | – | – | – | – | IC50 [7]: > 40000 nM; IC50 [8]: > 40000 nM
3 | CN(C)Cc1nc2c(O)c(Cl)cc(Cl)c2c(=O)n1C [Compound F4269, 5,7-Dichloro-2-(dimethylamino)methyl-8-hydroxy-3-methylquinazolin-4(3H)-one] | – | – | – | – | – | fraction unbound [1]: 0.582 to 0.658; fraction unbound [2]: 0.074 to 0.116
4 | CCN(CC)Cc1nc2c(O)c(Cl)cc(Cl)c2c(=O)n1CC1CC1 [Compound F4385] | 910 | 86 | – | – | Metal transport 9% | Cytotox (% viable at 1 uM) [9]: 99.2% and 105.0%; Cytotox (% viable at 10 uM) ([9]; 10 uM): 97.7%

Further lines, with some results ahead:

Row | IC50 [3] [nM] | Compound | Fe-DA % cf. Fe 0.4 μM/DA 50 μM [4] [%] | Cytotox (% viable at 1 uM) [5] | Cytotox (% viable at 10 uM) [5] | Metal transport [6] | also measured
5 | 770 | CCNCc1nc2c(O)c(Cl)cc(Cl)c2c(=O)n1CC [Compound F4495] | 45 | 89.3% and 112.8% | 47.9% and 57.1% | Metal transport 8% | –
6 | 1930 | Br.CCn1c(CNC)nc2c(O)c(Cl)cc(Cl)c2c1=O [Compound F4486] | 56 | 97.9% and 101.4% | 52.2% and 43.3% | Metal transport 14% | –
7 | 460 | C#CCN(C)Cc1nc2c(O)c(Cl)cc(Cl)c2c(=O)n1CC1CC1 [Compound F4387] | 77 | – | – | Metal transport 111% | Cytotox (% viable at 1 uM) [9]: 104.0% and 92.7% and 95.9% and 100.7%
8 | 830 | Br.CCNCc1nc2c(O)c(Cl)cc(Cl)c2c(=O)n1C [Compound F4496] | 45 | 102.7% and 114.6% | 59.4% and 101.2% | Metal transport 7% | –
